Assay results: patent publication US11945793B1, “9-(2-hydroxypyridin-3-yl)-10[3-(dimethylamino)propyl]-3,4,6,7,9,10-hexahydroacridine-1,8(2H,5H)-dione as an antimicrobial compound” (KING FAISAL UNIVERSITY, priority 2023, dated 2024)

Tests used:
Assay type in all cases: cell-based
Settings in all cases: after 10, 20, 40 and 60 minutes at all dilutions 1:100, 1:200, 1:400, 1:800
[1] = tested on: Escherichia coli; assay: Antimicrobial screening by agar dilution, E. coli
Experimental: (§1) The antibacterial properties of the synthesized compound 9-(2-hydroxypyridin-3-yl)-10-[3-(dimethylamino)propyl]-3,4,6,7,9,10-hexahydroacridine-1,8(2H,5H)-dione were studied by the method of agar dilution. Test solutions of each compound was prepared in concentration of 1% using dimethylformamide as a solvent then they are diluted in physiological solution to obtain the final experimental dilutions 1:100, 1:200, 1:400, 1:800. The effect of these substances are compared with furacillin in a controllable study. The testing microbes used were gram positive bacteria Staphylococcus aureus, gram negative bacteria Pseudomonas aeruginosa and Escherichia coli and Candida albicans fungus. The experiments used for this survey were meat-pentonlu agar (EPA) for cultivation of bacteria and Saburo environment for the fungus. Each experiment used 1 mL of test solution on each plate […]. Two drops of emulsified with microbes feel were added. All experimental samples were taken from the agar after 10, 20, 40, 60 minutes in the environment on the basis of Patrk planted. The bacteria were cultivated at a temperature of 37° C. for 1 day and the mushroom was kept in a thermostat for […] at a temperature of 28° C. Then results were checked.

[2] = tested on: Candida albicans; assay: Antimicrobial (antifungal) screening by agar dilution, Candida albicans
Experimental: as §1

[3] = tested on: Pseudomonas aeruginosa; assay: Antimicrobial screening by agar dilution, Ps. aeruginosa
Experimental: as §1

[4] = tested on: Staphylococcus aureus; assay: Antimicrobial screening by agar dilution, St. aureus
Experimental: as §1

Measured: inhibition activity (in words)

CN(C)CCCN1C2=C(C(=O)CCC2)C(c2cccnc2O)C2=C1CCCC2=O [9-(2-hydroxypyridin-3-yl)-10-[3-(dimethylamino)propyl]-3,4,6,7,9,10-hexahydroacridine-1,8(2H,5H)-dione]
highest inhibition activity: all assays above
